“And” between values parts separate entries of the source, which are not always exact repeats. Equal values may be shown once. Toxic doses and inconclusive results are not listed. No stated cut-off is given here; in the data, active means T/C of 150% or more; inactive means T/C below 125%.
Tested on: L1210 leukemia ip in BDF1 mice, survival T/C
Assay: NCI In Vivo Anticancer Drug Screen. Data for tumor model L1210 Leukemia (intraperitoneal) in B6D2F1 (BDF1) mice
Settings: higher = longer survival
Outline: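 Mice bearing the transplanted tumor received compound or vehicle. Survival of the treated group was divided by that of the vehicle-treated control group to give the ratio.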

Measured: T/C

CN(C)c1nc(N(C)C)nc(N(C)C)n1
inactive: endpoint: mean survival time, dose: 2.5 mg/kg/injection, schedule: Q03HX040 (ip), vehicle: acetone 103 % of control | endpoint: mean survival time, dose: 4.8 mg/kg/injection, schedule: Q01DX Z (ip), vehicle: other 94 % of control | endpoint: mean survival time, dose: 5.0 mg/kg/injection, schedule: Q03HX040 (ip), vehicle: acetone 108 % of control | endpoint: mean survival time, dose: 5.0 mg/kg/injection, schedule: Q06HX020 (ip), vehicle: acetone 110 % of control | endpoint: mean survival time, dose: 5.5 mg/kg/injection, schedule: Q01DX009 (ip), vehicle: saline with Tween-80 104 % of control and 116 % of control | endpoint: mean survival time, dose: 8.5 mg/kg/injection, schedule: Q04DX002 (ip), vehicle: saline with Tween-80 93 % of control and 96 % of control | endpoint: mean survival time, dose: 9.4 mg/kg/injection, schedule: Q01DX009 (ip), vehicle: saline with Tween-80 92 % of control | endpoint: mean survival time, dose: 9.4 mg/kg/injection, schedule: Q01DX010 (ip), vehicle: saline 88 % of control and 92 % of control | endpoint: mean survival time, dose: 9.5 mg/kg/injection, schedule: Q01DX Z (ip), vehicle: other 100 % of control | endpoint: mean survival time, dose: 10.0 mg/kg/injection, schedule: Q03HX040 (ip), vehicle: acetone 106 % of control | endpoint: mean survival time, dose: 10.0 mg/kg/injection, schedule: Q06HX020 (ip), vehicle: acetone 110 % of control | endpoint: mean survival time, dose: 10.0 mg/kg/injection, schedule: Q12HX010 (ip), vehicle: acetone 100 % of control | endpoint: mean survival time, dose: 11.0 mg/kg/injection, schedule: Q01DX009 (ip), vehicle: saline with Tween-80 110 % of control and 118 % of control | endpoint: mean survival time, dose: 12.5 mg/kg/injection, schedule: Q01DX009 (ip), vehicle: saline with Tween-80 108 % of control | endpoint: mean survival time, dose: 17.0 mg/kg/injection, schedule: Q04DX002 (ip), vehicle: saline with Tween-80 100 % of control and 105 % of control | endpoint: mean survival time, dose: 18.8 mg/kg/injection, schedule: Q01DX009 (ip), vehicle: saline with Tween-80 103 % of control | endpoint: mean survival time, dose: 18.8 mg/kg/injection, schedule: Q01DX009 (ip), vehicle: saline 95 % of control and 92 % of control | endpoint: mean survival time, dose: 18.8 mg/kg/injection, schedule: Q01DX010 (ip), vehicle: saline 90 % of control and 91 % of control | endpoint: mean survival time, dose: 19.0 mg/kg/injection, schedule: Q01DX Z (ip), vehicle: other 101 % of control | endpoint: mean survival time, dose: 20.0 mg/kg/injection, schedule: Q01DX005 (ip), vehicle: acetone 101 % of control and 103 % of control | endpoint: mean survival time, dose: 20.0 mg/kg/injection, schedule: Q01DX009 (ip), vehicle: Klucel (hydroxypropylcellulose) (HPC) 99 % of control | endpoint: mean survival time, dose: 20.0 mg/kg/injection, schedule: Q01DX009 (ip), vehicle: saline with Tween-80 100 % of control | endpoint: mean survival time, dose: 20.0 mg/kg/injection, schedule: Q03HX040 (ip), vehicle: acetone 107 % of control | endpoint: mean survival time, dose: 20.0 mg/kg/injection, schedule: Q06HX020 (ip), vehicle: acetone 106 % of control | endpoint: mean survival time, dose: 20.0 mg/kg/injection, schedule: Q12HX010 (ip), vehicle: acetone 104 % of control | endpoint: mean survival time, dose: 25.0 mg/kg/injection, schedule: Q01DX009 (ip), vehicle: saline with Tween-80 98 % of control | endpoint: mean survival time, dose: 30.0 mg/kg/injection, schedule: Q03HX040 (ip), vehicle: saline 110 % of control | endpoint: mean survival time, dose: 34.0 mg/kg/injection, schedule: Q04DX002 (ip), vehicle: saline with Tween-80 100 % of control and 101 % of control | endpoint: mean survival time, dose: 37.5 mg/kg/injection, schedule: Q01DX009 (ip), vehicle: saline with Tween-80 98 % of control | endpoint: mean survival time, dose: 37.5 mg/kg/injection, schedule: Q01DX009 (ip), vehicle: saline 94 % of control and 95 % of control | endpoint: mean survival time, dose: 37.5 mg/kg/injection, schedule: Q01DX010 (ip), vehicle: saline 95 % of control and 91 % of control | endpoint: mean survival time, dose: 38.0 mg/kg/injection, schedule: Q01DX Z (ip), vehicle: other 96 % of control | endpoint: mean survival time, dose: 40.0 mg/kg/injection, schedule: Q01DX005 (ip), vehicle: acetone 100 % of control and 110 % of control | endpoint: mean survival time, dose: 40.0 mg/kg/injection, schedule: Q01DX009 (ip), vehicle: Klucel (hydroxypropylcellulose) (HPC) 101 % of control | endpoint: mean survival time, dose: 40.0 mg/kg/injection, schedule: Q01DX009 (ip), vehicle: saline with Tween-80 101 % of control | endpoint: mean survival time, dose: 40.0 mg/kg/injection, schedule: Q06HX020 (ip), vehicle: acetone 118 % of control | endpoint: mean survival time, dose: 40.0 mg/kg/injection, schedule: Q12HX010 (ip), vehicle: acetone 107 % of control | endpoint: mean survival time, dose: 50.0 mg/kg/injection, schedule: Q01DX001 (ip), vehicle: saline with Tween-80 97 % of control | endpoint: mean survival time, dose: 50.0 mg/kg/injection, schedule: Q01DX009 (ip), vehicle: saline with Tween-80 107 % of control | endpoint: mean survival time, dose: 50.0 mg/kg/injection, schedule: Q12HX010 (ip), vehicle: saline 96 % of control | endpoint: mean survival time, dose: 68.0 mg/kg/injection, schedule: Q04DX002 (ip), vehicle: saline with Tween-80 104 % of control and 105 % of control | endpoint: mean survival time, dose: 75.0 mg/kg/injection, schedule: Q01DX009 (ip), vehicle: saline with Tween-80 111 % of control | endpoint: mean survival time, dose: 75.0 mg/kg/injection, schedule: Q01DX009 (ip), vehicle: saline 94 % of control and 91 % of control | endpoint: mean survival time, dose: 75.0 mg/kg/injection, schedule: Q01DX010 (ip), vehicle: saline 98 % of control and 92 % of control | endpoint: mean survival time, dose: 80.0 mg/kg/injection, schedule: Q01DX005 (ip), vehicle: acetone 104 % of control and 106 % of control | endpoint: mean survival time, dose: 80.0 mg/kg/injection, schedule: Q01DX009 (ip), vehicle: Klucel (hydroxypropylcellulose) (HPC) 100 % of control | endpoint: mean survival time, dose: 80.0 mg/kg/injection, schedule: Q01DX009 (ip), vehicle: saline with Tween-80 105 % of control | endpoint: mean survival time, dose: 80.0 mg/kg/injection, schedule: Q12HX010 (ip), vehicle: acetone 115 % of control | endpoint: mean survival time, dose: 85.0 mg/kg/injection, schedule: Q01DX001 (ip), vehicle: other 94 % of control | endpoint: mean survival time, dose: 100.0 mg/kg/injection, schedule: Q01DX001 (ip), vehicle: saline with Tween-80 98 % of control | endpoint: mean survival time, dose: 100.0 mg/kg/injection, schedule: Q01DX009 (ip), vehicle: saline with Tween-80 97 % of control | endpoint: mean survival time, dose: 100.0 mg/kg/injection, schedule: Q12HX010 (ip), vehicle: saline 98 % of control | endpoint: mean survival time, dose: 125.0 mg/kg/injection, schedule: Q01DX001 (ip), vehicle: other 109 % of control | endpoint: mean survival time, dose: 130.0 mg/kg/injection, schedule: Q01DX001 (ip), vehicle: other 101 % of control | endpoint: mean survival time, dose: 136.0 mg/kg/injection, schedule: Q04DX002 (ip), vehicle: saline with Tween-80 96 % of control and 98 % of control | endpoint: mean survival time, dose: 150.0 mg/kg/injection, schedule: Q01DX009 (ip), vehicle: saline with Tween-80 124 % of control | endpoint: mean survival time, dose: 150.0 mg/kg/injection, schedule: Q01DX009 (ip), vehicle: saline 93 % of control and 102 % of control | endpoint: mean survival time, dose: 160.0 mg/kg/injection, schedule: Q01DX009 (ip), vehicle: Klucel (hydroxypropylcellulose) (HPC) 107 % of control and 87 % of control | endpoint: mean survival time, dose: 160.0 mg/kg/injection, schedule: Q01DX009 (ip), vehicle: saline with Tween-80 109 % of control | endpoint: mean survival time, dose: 195.0 mg/kg/injection, schedule: Q01DX001 (ip), vehicle: other 94 % of control | endpoint: mean survival time, dose: 200.0 mg/kg/injection, schedule: Q01DX001 (ip), vehicle: saline with Tween-80 101 % of control | endpoint: mean survival time, dose: 200.0 mg/kg/injection, schedule: Q01DX009 (ip), vehicle: saline with Tween-80 124 % of control | endpoint: mean survival time, dose: 240.0 mg/kg/injection, schedule: Q01DX009 (ip), vehicle: Klucel (hydroxypropylcellulose) (HPC) 86 % of control | endpoint: mean survival time, dose: 250.0 mg/kg/injection, schedule: Q01DX001 (ip), vehicle: other 100 % of control | endpoint: mean survival time, dose: 272.0 mg/kg/injection, schedule: Q04DX002 (ip), vehicle: saline with Tween-80 100 % of control and 105 % of control | endpoint: mean survival time, dose: 400.0 mg/kg/injection, schedule: Q01DX001 (ip), vehicle: saline with Tween-80 98 % of control | endpoint: mean survival time, dose: 500.0 mg/kg/injection, schedule: Q01DX001 (ip), vehicle: other 112 % of control | endpoint: median survival time, dose: 18.8 mg/kg/injection, schedule: Q01DX009 (ip), vehicle: saline 100 % of control and 114 % of control | endpoint: median survival time, dose: 37.5 mg/kg/injection, schedule: Q01DX009 (ip), vehicle: saline 100 % of control and 114 % of control | endpoint: median survival time, dose: 75.0 mg/kg/injection, schedule: Q01DX009 (ip), vehicle: saline 100 % of control and 111 % of control | endpoint: median survival time, dose: 150.0 mg/kg/injection, schedule: Q01DX009 (ip), vehicle: saline 111 % of control and 121 % of control

NC(N)=NCCCC(N)C(=O)NCCCCCCNCCCCCCNC(=O)C(N)CCCN=C(N)N (stereo not given)
inactive: endpoint: mean survival time, dose: 1.25 mg/kg/injection, schedule: Q01DX Z (ip), vehicle: saline 96 % of control | endpoint: mean survival time, dose: 2.5 mg/kg/injection, schedule: Q01DX Z (ip), vehicle: saline 94 % of control | endpoint: mean survival time, dose: 5.0 mg/kg/injection, schedule: Q01DX Z (ip), vehicle: saline 98 % of control | endpoint: mean survival time, dose: 10.0 mg/kg/injection, schedule: Q01DX Z (ip), vehicle: saline 96 % of control

Reference: PubChem BioAssay AID248 (DTP/NCI, 2004)
